Patent EP4768499A1, “MACROCYCLIC PEPTIDE COMPOUND HAVING CELL MEMBRANE PERMEABILITY AND METABOLIC STABILITY, AND LIBRARY CONTAINING SAME” (Chugai Seiyaku Kabushiki Kaisha, priority 2023, dated 2025)
Starred links: 1 amine or outer side, 2 acyl side, 3 side chain; linkers in the order of their positions; H or OH if unused. Positions of bridges follow the written chain, without caps; N, C: chain ends. Non-standard residues stand in square brackets, D forms with d. Residues, ends and D or L forms follow the SMILES beside them. *: point of attachment. NMeF = CN[C@@H](Cc1ccccc1)C(=O)O; NMeGABA = CN(CCCC(=O)[*:2])[*:1]; NMeI = CC[C@H](C)[C@H](NC)C(=O)O; NMeT = CN[C@H](C(=O)O)[C@@H](C)O; hPhe = N[C@@H](CCc1ccccc1)C(=O)O; NMeβAla = CN(CCC(=O)[*:2])[*:1]; NMeL = CN[C@@H](CC(C)C)C(=O)O; NMeV = CN[C@H](C(=O)O)C(C)C; NMeAbu = CC[C@H](NC)C(=O)O; NMeA = CN[C@@H](C)C(=O)O; Piperidide = C1CCN(*)CC1; Abu = CC[C@H](N)C(=O)O; NBuGly = CCCCNCC(=O)O; βAla = NCCC(=O)O; Sar = CNCC(=O)O; tBu = CC(C)(C)*

Assays:
[1] = Membrane permeability test using Caco-2 cells with preincubation; assay type: in vitro ADME; settings: Caco-2; preincubation 20 to 24 hours; Apical FaSSIF/HBSS pH 6.0, Basal HBSS 4% BSA pH 7.4; 180 minutes; read-out: Caco2 Papp
[2] = system: Caco-2 cells; assay: as above; assay type: in vitro ADME; settings: Caco-2 cells, preincubation 20 to 24 hours; apical FaSSIF/HBSS 1% DMSO pH 6.0, basal HBSS 4% BSA pH 7.4; basal sample at 180 minutes
[3] = Metabolic stability test: liver microsomal stability assay; assay type: in vitro ADME, mouse; settings: mouse liver microsomes 0.5 mg protein/mL, compound 1 µM; for microsomal CLint at 1 µM: male, pH 7.4, presence of NADPH, read-out: Mouse Hepatic Microsome CLh,int NADPH(+); for Mouse Hepatic Microsome CLh,int NADPH(-): absence of NADPH

| SMILES | Papp A→B [1] [×10⁻⁶ cm/s] | Caco2 Papp (10^-6 cm/sec) [2] | microsomal CLint at 1 µM [3] [µL/min/mg] | Mouse Hepatic Microsome CLh,int NADPH(-) [3] [µL/min/mg Protein] |
| --- | --- | --- | --- | --- |
| CC[C@@H]1NC(=O)[C@H](Cc2ccccc2)N(C)C(=O)[C@H](C)N(C)C(=O)[C@H](CC(C)C)N(C)C(=O)[C@H](CC(C)C)NC(=O)CCCN(C)C(=O)C[C@@H](C(=O)N2CCCCC2)NC(=O)[C@H](CC(C)C)N(C)C(=O)[C@H](C)N(C)C(=O)[C@H]([C@@H](C)O)NC(=O)[C@H](CC(C)C)N(C)C(=O)[C@H](COC(C)(C)C)NC(=O)[C@H](Cc2ccccc2)N(C)C1=O [pd109] ([NMeGABA]L[NMeL][NMeA][NMeF][Abu][NMeF]S(tBu)[NMeL]T[NMeA][NMeL]D-Piperidide; lactam N-13) | 0.83 | 0.83 10^-6 cm/sec | 40.6 | 30.3 |
| CC[C@H](C)[C@@H]1NC(=O)[C@H](C)N(C)C(=O)[C@H]([C@@H](C)O)NC(=O)[C@H](Cc2ccccc2)N(C)C(=O)[C@H](COC(C)(C)C)NC(=O)[C@H](CC(C)C)N(C)C(=O)CN(C)C(=O)[C@H](Cc2ccccc2)N(C)C(=O)[C@H]([C@@H](C)CC)NC(=O)[C@H](CC(C)C)N(C)C(=O)CCN(C)C(=O)C[C@@H](C(=O)N2CCCCC2)NC(=O)[C@H](CC(C)C)N(C)C1=O [pd110] ([NMeβAla][NMeL]I[NMeF][Sar][NMeL]S(tBu)[NMeF]T[NMeA]I[NMeL]D-Piperidide; lactam N-13) | 0.43 | 0.43 10^-6 cm/sec | 38.5 | 30.5 |
| CCCCN1CC(=O)N[C@@H](CC(C)C)C(=O)N(C)[C@@H]([C@@H](C)CC)C(=O)N(C)[C@@H]([C@@H](C)O)C(=O)N(C)[C@@H](Cc2ccccc2)C(=O)N[C@@H]([C@@H](C)CC)C(=O)N(C)[C@@H](CC(C)C)C(=O)N[C@H](C(=O)N2CCCCC2)CC(=O)N(C)[C@@H](C)C(=O)N[C@@H](CC(C)C)C(=O)N(C)[C@@H](CC(C)C)C(=O)N(C)[C@@H](Cc2ccccc2)C(=O)N[C@@H](CC)C1=O [pd111] ([NMeA]L[NMeL][NMeF][Abu][NBuGly]L[NMeI][NMeT][NMeF]I[NMeL]D-Piperidide; lactam N-13) | 0.04 | 0.04 10^-6 cm/sec | 18.7 | 28.4 |
| CC[C@@H]1NC(=O)[C@H](CC(C)C)N(C)C(=O)[C@H](Cc2ccccc2)N(C)C(=O)[C@H](CC(C)C)N(C)C(=O)[C@H](C)NC(=O)C[C@@H](C(=O)N2CCCCC2)NC(=O)[C@H](C(C)C)N(C)C(=O)[C@@H]2CCCN2C(=O)CCN(C)C(=O)[C@H](CC(C)C)NC(=O)[C@H]([C@@H](C)CC)N(C)C(=O)[C@H]([C@@H](C)O)NC(=O)[C@H](Cc2ccccc2)N(C)C1=O [pd112] (A[NMeL][NMeF][NMeL][Abu][NMeF]T[NMeI]L[NMeβAla]P[NMeV]D-Piperidide; lactam N-13) | 0.35 | 0.35 10^-6 cm/sec | 30.5 | 21.2 |
| CC[C@H](C)[C@H]1C(=O)N[C@@H]([C@@H](C)O)C(=O)N(C)CC(=O)N(C)[C@@H](CC(C)C)C(=O)N[C@@H](CC(C)C)C(=O)N[C@H](C(=O)N2CCCCC2)CC(=O)N(C)[C@@H](C)C(=O)N[C@@H](CC(C)C)C(=O)N(C)[C@@H](CC(C)C)C(=O)N(C)CCC(=O)N(C)[C@@H](Cc2ccccc2)C(=O)NCCC(=O)N(C)[C@@H](Cc2ccccc2)C(=O)N1C [pd113] ([NMeA]L[NMeL][NMeβAla][NMeF][βAla][NMeF][NMeI]T[Sar][NMeL]LD-Piperidide; lactam N-13) | 0.2 | 0.20 10^-6 cm/sec | 24.4 | 16.4 |
| CC[C@H](C)[C@@H]1NC(=O)[C@H](Cc2ccccc2)N(C)C(=O)CN(C)C(=O)C[C@@H](C(=O)N2CCCCC2)NC(=O)[C@H]([C@@H](C)CC)N(C)C(=O)[C@H](COC(C)(C)C)NC(=O)[C@@H]2CCCN2C(=O)[C@H](CCc2ccccc2)NC(=O)[C@H](CC)N(C)C(=O)[C@H](CC(C)C)NC(=O)[C@H](CC(C)C)N(C)C(=O)[C@H]([C@@H](C)O)N(C)C(=O)[C@H](CC(C)C)N(C)C1=O [pd114] ([Sar][NMeF]I[NMeL][NMeT][NMeL]L[NMeAbu][hPhe]PS(tBu)[NMeI]D-Piperidide; lactam N-13) | 0.16 | 0.16 10^-6 cm/sec | 35.6 | 29.2 |
| CC[C@H](C)[C@@H]1NC(=O)[C@H](CC(C)C)N(C)C(=O)CN(C)C(=O)C[C@@H](C(=O)N2CCCCC2)NC(=O)[C@H](C)N(C)C(=O)CNC(=O)[C@H](C(C)C)N(C)C(=O)[C@H](C)N(C)C(=O)[C@H](Cc2ccccc2)N(C)C(=O)[C@H](CC(C)C)NC(=O)[C@H](Cc2ccccc2)N(C)C(=O)[C@H]([C@@H](C)O)NC(=O)[C@H](CC(C)C)N(C)C1=O [pd115] ([Sar][NMeL]I[NMeL]T[NMeF]L[NMeF][NMeA][NMeV]G[NMeA]D-Piperidide; lactam N-13) | 0.09 | 0.09 10^-6 cm/sec | 24.9 | 12.3 |
| CC(C)C[C@@H]1NC(=O)[C@H]([C@@H](C)O)N(C)C(=O)[C@@H](C(C)C)NC(=O)C[C@@H](C(=O)N2CCCCC2)NC(=O)[C@H](C(C)C)N(C)C(=O)[C@H](C)N(C)C(=O)[C@H](Cc2ccccc2)N(C)C(=O)[C@@H]2CCCN2C(=O)[C@H](CC(C)C)N(C)C(=O)CN(C)C(=O)[C@H](CCc2ccccc2)NC(=O)[C@H](CC(C)C)N(C)C(=O)[C@H](C(C)C)N(C)C1=O [pd116] ([dV][NMeT]L[NMeV][NMeL][hPhe][Sar][NMeL]P[NMeF][NMeA][NMeV]D-Piperidide; lactam N-13) | 0.19 | 0.19 10^-6 cm/sec | 19.2 | 14.9 |
| CC[C@H]1C(=O)N(C)[C@@H](CC(C)C)C(=O)N[C@@H]([C@@H](C)O)C(=O)N(C)[C@@H](C)C(=O)N(C)[C@@H](CC(C)C)C(=O)N[C@H](C(=O)N2CCCCC2)CC(=O)N(C)CCCC(=O)N[C@@H](CC(C)C)C(=O)N(C)[C@@H](CC(C)C)C(=O)N(C)[C@@H](C)C(=O)N(C)[C@@H](Cc2ccccc2)C(=O)N[C@@H](C)C(=O)N(C)[C@@H](Cc2ccccc2)C(=O)N1C [pd117] ([NMeGABA]L[NMeL][NMeA][NMeF]A[NMeF][NMeAbu][NMeL]T[NMeA][NMeL]D-Piperidide; lactam N-13) | 0.17 | 0.17 10^-6 cm/sec | 25.9 | 14.4 |
| CC[C@H](C)[C@H]1C(=O)N[C@@H](Cc2ccccc2)C(=O)N2CCC[C@H]2C(=O)N(C)[C@@H](CC(C)C)C(=O)N[C@@H](COC(C)(C)C)C(=O)N(C)[C@@H](Cc2ccccc2)C(=O)N[C@@H]([C@@H](C)O)C(=O)N(C)[C@@H](CC)C(=O)N2CCC[C@H]2C(=O)N(C)[C@@H](CC(C)C)C(=O)N[C@H](C(=O)N2CCCCC2)CC(=O)N(C)CCCC(=O)N(C)[C@@H](CC(C)C)C(=O)N1C [pd118] ([NMeGABA][NMeL][NMeI]FP[NMeL]S(tBu)[NMeF]T[NMeAbu]P[NMeL]D-Piperidide; lactam N-13) | 0.46 | 0.46 10^-6 cm/sec | 31.2 | 19.8 |
| CC[C@H](C)[C@H]1C(=O)N[C@@H](CC(C)C)C(=O)N(C)[C@@H](CC(C)C)C(=O)N2CCC[C@H]2C(=O)N(C)[C@@H](C(C)C)C(=O)N[C@H](C(=O)N2CCCCC2)CC(=O)N(C)[C@@H](C)C(=O)N(C)[C@@H](CC(C)C)C(=O)N[C@@H](COC(C)(C)C)C(=O)N(C)[C@@H](Cc2ccccc2)C(=O)N(C)[C@@H](CC)C(=O)N(C)[C@@H](Cc2ccccc2)C(=O)N[C@@H]([C@@H](C)O)C(=O)N1C [pd119] ([NMeA][NMeL]S(tBu)[NMeF][NMeAbu][NMeF]T[NMeI]L[NMeL]P[NMeV]D-Piperidide; lactam N-13) | 0.5 | 0.50 10^-6 cm/sec | 41.2 | 34.2 |
| CC[C@H](C)[C@H]1C(=O)N[C@@H]([C@@H](C)O)C(=O)N(C)CC(=O)N(C)[C@@H](CC(C)C)C(=O)N(C)[C@@H](Cc2ccccc2)C(=O)N[C@H](C(=O)N2CCCCC2)CC(=O)N(C)[C@@H](C)C(=O)N[C@@H](CC(C)C)C(=O)N(C)[C@@H](Cc2ccccc2)C(=O)N(C)CCC(=O)N(C)[C@@H](CC(C)C)C(=O)N(C)CCC(=O)N[C@@H](CC(C)C)C(=O)N1C [pd120] ([NMeA]L[NMeF][NMeβAla][NMeL][NMeβAla]L[NMeI]T[Sar][NMeL][NMeF]D-Piperidide; lactam N-13) | 0.69 | 0.69 10^-6 cm/sec | 25.8 | 18.4 |
| CC[C@H](C)[C@@H]1NC(=O)[C@H](C)N(C)C(=O)C[C@@H](C(=O)N2CCCCC2)NC(=O)[C@H](CC)N(C)C(=O)[C@H](COC(C)(C)C)NC(=O)[C@H](CC(C)C)N(C)C(=O)[C@H](C)N(C)C(=O)[C@H](CC(C)C)N(C)C(=O)[C@H](Cc2ccccc2)N(C)C(=O)CN(C)C(=O)[C@H]([C@@H](C)O)NC(=O)[C@H](CC(C)C)N(C)C(=O)[C@H](Cc2ccccc2)N(C)C1=O [pd121] ([NMeA]I[NMeF][NMeL]T[Sar][NMeF][NMeL][NMeA][NMeL]S(tBu)[NMeAbu]D-Piperidide; lactam N-13) | 1.02 | 1.02 10^-6 cm/sec | 21.9 | 18.2 |
